# Measurements taken from US8906868B2, “Aminoglycoside derivatives” (Rempex Pharmaceuticals, Inc., priority 2010, dated 2014).
# Where two headings read alike, the source gives them in different places.
# Legend:
# [1] = system: Klebsiella pneumonia (ATCC 43816); test: MIC, broth microdilution; conditions: Klebsiella pneumoniae, ATCC43816, read-out: Compound MIC on Bacterial Strains: K. pneumonia ATCC 43816
# [2] = system: Acinetobacter baumannii (ATCC 19606); test: MIC, broth microdilution; conditions: Acinetobacter baumannii, ATCC19606, read-out: Compound MIC on Bacterial Strains: A. baumannii ATCC 19606
# [3] = system: Escherichia coli (ATCC 25922); test: MIC, broth microdilution; conditions: for MIC: Escherichia coli
# [4] = system: ECM6007 aac(6′) + aph(2″); test: microbe, parasite or virus in culture; type: cell-based, Escherichia coli; conditions: Table 4; for MIC: Escherichia coli, 18 h, read-out: Compound MIC on Bacterial Strains: Escherichia coli ECM6007 aac(6′) + aph(2″)
# Procedure: (§1) To compare microbiological activity of the test compounds, minimum inhibitory concentrations (MIC.s) were determined. Antibiotic MICs were obtained using the broth microdilution method according to Clinical and Laboratory Standards Institute (CLSI) approved guidelines (Methods for dilution antimicrobial susceptibility tests for bacteria that grow aerobically; approved standard—7th ed. CLSI document M7-A7. Clinical and Laboratory Standards Institute, Wayne, Pa., incorporated herein by reference in its entirety). Antibiotics were dissolved as specified by CLSI (Performance standards for antimicrobial susceptibility testing; Seventeenth informational supplement. CLSI document M100-S17. Clinical and Laboratory Standards Institute, Wayne, Pa., incorporated herein by reference in its entirety), and were serially diluted 2-fold in cation adjusted Mueller Hinton Broth (CaMHB) at 2× concentration. Bacterial inoculums were prepared in CaMHB by suspension of a colony from an agar plate that was prepared the previous day to obtain a final concentration of 5×10^5CFU/ml. The plates were incubated for 18 hours at 35° C. […] MIC.s were determined by reading the turbidity of plate wells using a SpectraMax Plus384 plate reader (Molecular Devices, Sunnyvale, Calif., USA) at 600 nm and were confirmed by visual inspection.
# EC1001 acc(6′)-Ib = test: microbe, parasite or virus in culture; type: cell-based, Escherichia coli; conditions: Table 4; for MIC: Escherichia coli, read-out: Compound MIC on Bacterial Strains: Escherichia coli EC1001 acc(6′)-Ib
# Procedure: as §1
# ACM1006 acc(6′)-Ib = test: microbe, parasite or virus in culture; type: cell-based, Acinetobacter baumannii; conditions: Table 4; for MIC: Acinetobacter baumannii, read-out: Compound MIC on Bacterial Strains: Acinetobacter baumannii ACM1006 acc(6′)-Ib
# Procedure: as §1
# ACM1005 ATCC 19004 = test: MIC, broth microdilution; type: cell-based, Acinetobacter baumannii; conditions: Table 4; for MIC: Acinetobacter baumannii, ATCC19004, read-out: Compound MIC on Bacterial Strains: Acinetobacter baumannii ACM1005 ATCC 19004
# Procedure: as §1
# [5] = system: Pseudomonas aeruginosa (ATCC 27853); test: MIC, broth microdilution; conditions: Pseudomonas aeruginosa
# [6] = system: Staphylococcus aureus (ATCC 29213); test: MIC, broth microdilution; conditions: Staphylococcus aureus
# ECM6003 rmtB = test: microbe, parasite or virus in culture; type: cell-based, Escherichia coli; conditions: for MIC: Escherichia coli, read-out: Compound MIC on Bacterial Strains: ECM6003 rmtB
# Procedure: as §1
# (§2) Activity of the test compounds was determined using QC strains and strains with known aminoglycoside resistance mechanisms (TABLE 3). This specific panel contained strains expressing enzymes that covalently modify N2″, N3 and N3′ positions.
# The panel also contained a strain expressing ribosomal RNA methylase, RmtB.
# PAM3072 aac(6′)-II = test: microbe, parasite or virus in culture; type: cell-based, Pseudomonas aeruginosa; conditions: Pseudomonas aeruginosa, Table 5; read-out: Compound MIC on Bacterial Strains: Pseudomonas aeruginosa PAM3072 aac(6′)-II
# Procedure: as §1
# PAM3073 aac(6′)-I = test: microbe, parasite or virus in culture; type: cell-based, Pseudomonas aeruginosa; conditions: Pseudomonas aeruginosa, Table 5; read-out: Compound MIC on Bacterial Strains: Pseudomonas aeruginosa PAM3073 aac(6′)-I
# Procedure: as §1
# EC1002 aph(3′)-IV = test: organism not typed; type: cell-based; conditions: for MIC: read-out: Compound MIC on Bacterial Strains: EC1002 aph(3′)-IV
# Procedure: as §1, §2
# ECM6010 ant(2″)-I = test: microbe, parasite or virus in culture; type: cell-based, Escherichia coli; conditions: for MIC: Escherichia coli, read-out: Compound MIC on Bacterial Strains: ECM6010 ant(2″)-I
# Procedure: as §1, §2
# ECM6009 aac(3)-II = test: microbe, parasite or virus in culture; type: cell-based, Escherichia coli; conditions: for MIC: Escherichia coli, read-out: Compound MIC on Bacterial Strains: ECM6009 aac(3)-II
# Procedure: as §1, §2
# ECM6006 aph(3′)-III = test: microbe, parasite or virus in culture; type: cell-based, Escherichia coli; conditions: for MIC: Escherichia coli, read-out: Compound MIC on Bacterial Strains: ECM6006 aph(3′)-III
# Procedure: as §1, §2
# ECM6011 aph(3′)-I = test: microbe, parasite or virus in culture; type: cell-based, Escherichia coli; conditions: for MIC: Escherichia coli, read-out: Compound MIC on Bacterial Strains: ECM6011 aph(3′)-I
# Procedure: as §1, §2
# [7] = ATCC25922, read-out: Compound MIC on Bacterial Strains: E. coli ATCC 25922
# [8] = ATCC25922, read-out: Compound MIC on Bacterial Strains: Escherichia coli ECM6000 ATCC 25922
# [9] = ATCC27853, read-out: Compound MIC on Bacterial Strains: P. aeruginosa ATCC 27853
# [10] = ATCC29213, read-out: Compound MIC on Bacterial Strains: S. aureus ATCC 29213, QC strain, Table 2
# [11] = ATCC25922, read-out: Compound MIC on Bacterial Strains: ECM6000 ATCC 25922
# [12] = ATCC27853, read-out: Compound MIC on Bacterial Strains: Pseudomonas aeruginosa PAM3034 ATCC 27853
# [13] = ATCC29213, read-out: Compound MIC on Bacterial Strains: Staphylococcus aureus SAM1000 ATCC 29213, Table 5
Compound,MIC [1] [µg/mL],MIC [2] [µg/mL],"MIC [3, 7] [µg/mL]","MIC [3, 8] [µg/mL]",MIC [4] [µg/mL],MIC (EC1001 acc(6′)-Ib) [µg/mL],MIC (ACM1006 acc(6′)-Ib) [µg/mL],"MIC [5, 9] [µg/mL]","MIC [6, 10] [µg/mL]","MIC [3, 11] [µg/mL]",MIC (ECM6003 rmtB; Table 3) [µg/mL],MIC (PAM3072 aac(6′)-II) [µg/mL],MIC (PAM3073 aac(6′)-I) [µg/mL],MIC (EC1002 aph(3′)-IV) [µg/mL],MIC (ECM6010 ant(2″)-I) [µg/mL],MIC (ECM6009 aac(3)-II) [µg/mL],MIC (ECM6006 aph(3′)-III) [µg/mL],MIC (ECM6011 aph(3′)-I) [µg/mL],"MIC [5, 12] [µg/mL]","MIC [6, 13] [µg/mL]",also measured
"CN[C@@H]1[C@@H](O)[C@@H](O[C@@H]2[C@@H](O)[C@H](O[C@H]3O[C@H](CN)CC[C@H]3N)[C@@H](N)C[C@H]2NC(=O)[C@@H](O)[C@H](N)CN)OC[C@]1(C)O [Compound 3, (2S,3R)-3,4-diamino-N-((1R,2S,3S,4R,5S)-5-amino-4-((2R,3R,6S)-3-amino-6-(aminomethyl)tetrahydro-2H-pyran-2-yloxy)-2-((2R,3R,4R,5R)-3,5-dihydroxy-5-methyl-4-(methylamino)tetrahydro-2H-pyran-2-yloxy)-3-hydroxycyclohexyl)-2-hydroxybutanamide]",< 1,> 8,< 1,1 to 8,< 1,> 8,1 to 8,< 1,< 1,–,–,–,–,–,–,–,–,–,–,–,MIC (ACM1005 ATCC 19004): 1 to 8 µg/mL
"CN[C@@H]1[C@@H](O)[C@@H](O[C@@H]2[C@@H](O)[C@H](O[C@H]3O[C@H](CNCC(O)CO)CC[C@H]3N)[C@@H](N)C[C@H]2NC(=O)[C@@H](O)CCN)OC[C@]1(C)O (stereo partly drawn) [Compound 8, (2S)-4-amino-N-((1R,2S,3S,4R,5S)-5-amino-4-((2R,3R,6S)-3-amino-6-((2,3-dihydroxypropylamino)methyl)tetrahydro-2H-pyran-2-yloxy)-2-((2R,3R,4R,5R)-3,5-dihydroxy-5-methyl-4-(methylamino)tetrahydro-2H-pyran-2-yloxy)-3-hydroxycyclohexyl)-2-hydroxybutanamide]",< 1,> 8,< 1,< 1,< 1,< 1,1 to 8,1 to 8,< 1,< 1,> 8,> 8,1 to 8,< 1,< 1,< 1,1 to 8,< 1,1 to 8,< 1,MIC (ACM1005 ATCC 19004): 1 to 8 µg/mL
"CN[C@@H]1[C@@H](O)[C@@H](O[C@@H]2[C@@H](O)[C@H](O[C@H]3O[C@H](CN)CC[C@H]3N)[C@@H](N)C[C@H]2NC(=O)[C@@H](O)[C@H](N)CO)OC[C@]1(C)O [Compound 20, (2S,3R)-3-amino-N-((1R,2S,3S,4R,5S)-5-amino-4-((2R,3R,6S)-3-amino-6-(aminomethyl)tetrahydro-2H-pyran-2-yloxy)-2-((2R,3R,4R,5R)-3,5-dihydroxy-5-methyl-4-(methylamino)tetrahydro-2H-pyran-2-yloxy)-3-hydroxycyclohexyl)-2,4-dihydroxybutanamide]",< 1,> 8,1 to 8,–,–,–,–,1 to 8,1 to 8,1 to 8,> 8,> 8,> 8,1 to 8,1 to 8,< 1,1 to 8,1 to 8,1 to 8,1 to 8,–
NC[C@@H]1CCC(N)[C@@H](OC2C(O)C(O[C@H]3OC(CO)C(O)[C@H](N)C3O)[C@H](NC(=O)C3(O)CNNC3)C[C@@H]2N)O1 (stereo partly shown) [Compound 28],–,–,–,–,–,–,–,–,–,–,–,–,–,–,–,–,–,–,–,–,fold increased resistance conferred by RmtB (ECM6003 rmtB; strain expressing ribosomal RNA methylase RmtB): 8 fold
"CN[C@@H]1[C@@H](O)[C@@H](O[C@@H]2[C@@H](O)[C@H](O[C@H]3O[C@H](CNCCO)CC[C@H]3N)[C@@H](N)C[C@H]2NC(=O)[C@@H](O)CNN)OC[C@]1(C)O [Compound 41, (S)—N-((1R,2S,3S,4R,5S)-5-amino-4-((2R,3R,6S)-3-amino-6-((2-hydroxyethylamino)methyl)tetrahydro-2H-pyran-2-yloxy)-2-((2R,3R,4R,5R)-3,5-dihydroxy-5-methyl-4-(methylamino)tetrahydro-2H-pyran-2-yloxy)-3-hydroxycyclohexyl)-3-hydrazinyl-2-hydroxypropanamide]",1 to 8,> 8,1 to 8,1 to 8,1 to 8,> 8,–,> 8,1 to 8,1 to 8,> 8,> 8,> 8,1 to 8,1 to 8,> 8,> 8,1 to 8,> 8,1 to 8,–
"CNC[C@@H]1CC[C@@H](N)[C@@H](O[C@H]2[C@H](O)[C@@H](O[C@H]3OC[C@](C)(O)[C@H](NC)[C@H]3O)[C@H](N)C[C@@H]2N)O1 [Micronomicin, reference compound]",–,–,–,–,–,–,–,–,–,–,–,–,–,–,–,–,–,–,–,–,Compound MIC on Bacterial Strains: ECM6000 ATCC 25922 ([3]; Table 3): A (MIC of 1 μg/ml or less); Compound MIC on Bacterial Strains: Escherichia coli ECM6000 ATCC 25922 ([3]; Table 4): A (MIC of 1 μg/ml or less); Compound MIC on Bacterial Strains: ECM6003 rmtB (ECM6003 rmtB; Table 3): C (MIC of greater than 8 μg/ml); Compound MIC on Bacterial Strains: Escherichia coli ECM6007 aac(6′) + aph(2″) [4]: B (MIC of greater than 1 μg/ml to 8 μg/ml); Compound MIC on Bacterial Strains: Escherichia coli EC1001 acc(6′)-Ib (EC1001 acc(6′)-Ib): C (MIC of greater than 8 μg/ml); Compound MIC on Bacterial Strains: EC1002 aph(3′)-IV (EC1002 aph(3′)-IV): A (key: A: MIC of 1 μg/ml or less; B: MIC of greater than 1 μg/ml to 8 μg/ml; MIC of greater than 8 μg/ml); Compound MIC on Bacterial Strains: Acinetobacter baumannii ACM1006 acc(6′)-Ib (ACM1006 acc(6′)-Ib): C (MIC of greater than 8 μg/ml); Compound MIC on Bacterial Strains: Acinetobacter baumannii ACM1005 ATCC 19004 (ACM1005 ATCC 19004): A (MIC of 1 μg/ml or less); Compound MIC on Bacterial Strains: ECM6010 ant(2″)-I (ECM6010 ant(2″)-I): C (key: A: MIC of 1 μg/ml or less; B: MIC of greater than 1 μg/ml to 8 μg/ml; MIC of greater than 8 μg/ml); Compound MIC on Bacterial Strains: ECM6009 aac(3)-II (ECM6009 aac(3)-II): C (key: A: MIC of 1 μg/ml or less; B: MIC of greater than 1 μg/ml to 8 μg/ml; MIC of greater than 8 μg/ml); Compound MIC on Bacterial Strains: ECM6006 aph(3′)-III (ECM6006 aph(3′)-III): B (key: A: MIC of 1 μg/ml or less; B: MIC of greater than 1 μg/ml to 8 μg/ml; MIC of greater than 8 μg/ml); Compound MIC on Bacterial Strains: ECM6011 aph(3′)-I (ECM6011 aph(3′)-I): B (key: A: MIC of 1 μg/ml or less; B: MIC of greater than 1 μg/ml to 8 μg/ml; MIC of greater than 8 μg/ml)
